Experimental data from US8680012B2, “4-phenyl-pyrane-3,5-diones,4-phenyl-thiopyrane-3,6-diones and cyclohexanetriones as novel herbicides” (Syngenta Crop Protection LLC, priority 2006, dated 2014).

Legend:
Assay type in all cases: in vivo
[1] = test system: Echinochloa crus-galli (ECHCG); experiment: Example B pre-emergence herbicidal activity, glasshouse pot test; conditions: 312 h, rate 250 g/ha, evaluated after 13 days, read-out: Pre-emergence activity ECHCG (100=total damage to plant; 0=no damage to plant)
Method in brief: (§1)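 Spray application in 50:50 acetone/water with 0.5% Tween 20, pre-emergence at 1 day or post-emergence at 8 days after sowing. Evaluated visually at 13 days on a 0–100 damage scale.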

[2] = test system: Alopecurus myosuroides (ALOMY); experiment: as above; conditions: 312 h, rate 250 g/ha, evaluated after 13 days, read-out: Pre-emergence activity ALOMY (100=total damage to plant; 0=no damage to plant)
Method in brief: as §1

[3] = test system: Amaranthus retroflexus (AMARE); experiment: as above; conditions: 312 h, rate 250 g/ha, evaluated after 13 days, read-out: Pre-emergence activity AMARE (100=total damage to plant; 0=no damage to plant)
Method in brief: as §1

[4] = test system: Setaria faberi (SETFA); experiment: as above; conditions: 312 h, rate 250 g/ha, evaluated after 13 days, read-out: Pre-emergence activity SETFA (100=total damage to plant; 0=no damage to plant)
Method in brief: as §1

[5] = test system: Avena fatua (AVEFA); experiment: as above; conditions: 312 h, rate 250 g/ha, evaluated after 13 days, read-out: Pre-emergence activity AVEFA (100=total damage to plant; 0=no damage to plant)
Method in brief: as §1

[6] = test system: Echinochloa crus-galli (ECHCG); experiment: Example B post-emergence herbicidal activity, glasshouse pot test; conditions: 312 h, rate 250 g/ha, evaluated after 13 days, read-out: Post-emergence activity ECHCG (100=total damage to plant; 0=no damage to plant)
Method in brief: as §1

[7] = test system: Alopecurus myosuroides (ALOMY); experiment: as above; conditions: 312 h, rate 250 g/ha, evaluated after 13 days, read-out: Post-emergence activity ALOMY (100=total damage to plant; 0=no damage to plant)
Method in brief: as §1

[8] = test system: Amaranthus retroflexus (AMARE); experiment: as above; conditions: 312 h, rate 250 g/ha, evaluated after 13 days, read-out: Post-emergence activity AMARE (100=total damage to plant; 0=no damage to plant)
Method in brief: as §1

[9] = test system: Setaria faberi (SETFA); experiment: as above; conditions: 312 h, rate 250 g/ha, evaluated after 13 days, read-out: Post-emergence activity SETFA (100=total damage to plant; 0=no damage to plant)
Method in brief: as §1

[10] = test system: Avena fatua (AVEFA); experiment: as above; conditions: 312 h, rate 250 g/ha, evaluated after 13 days, read-out: Post-emergence activity AVEFA (100=total damage to plant; 0=no damage to plant)
Method in brief: as §1

Row | SMILES | pest or weed control at 250 g/ha [1] | pest or weed control at 250 g/ha [2] | pest or weed control at 250 g/ha [3] | pest or weed control at 250 g/ha [4] | pest or weed control at 250 g/ha [5] | pest or weed control at 250 g/ha [6] | pest or weed control at 250 g/ha [7] | pest or weed control at 250 g/ha [8] | pest or weed control at 250 g/ha [9] | pest or weed control at 250 g/ha [10]
1 | Cc1ccc(-c2ccc(Br)cc2)cc1C1=C(O)C(C)(C)OC(C)(C)C1=O [Compound A-82] | 100% | 80% | 20% | 90% | 90% | 100% | 100% | 0% | 100% | 100%
2 | CC1(C)OC(C)(C)C(O)=C(c2cc(-c3ccc(Cl)cc3)ccc2Br)C1=O [Compound A-149] | 100% | 60% | 0% | 90% | 30% | 100% | 90% | 20% | 100% | 70%
3 | CCc1ccc(-c2ccc(Cl)cc2)cc1C1=C(O)[C@@]2(C)C=C[C@H](O2)C1=O [Compound A-62] | 0% | 20% | 0% | 60% | 20% | 100% | 70% | 0% | 100% | 70%
4 | CCc1ccc(-c2ccc(Cl)c(F)c2)cc1C1=C(O)C(C)(C)SC(C)(C)C1=O (single isomer, unassigned) [Compound C-5] | 0% | 0% | 0% | 0% | 0% | 100% | 70% | 0% | 90% | 70%
5 | CCc1ccc(-c2cc(F)c(Cl)c(F)c2)cc1C1=C(O)C(C)(C)OC(C)(C)C1=O [Compound A-152] | 100% | 70% | 0% | 100% | 90% | 100% | 100% | 0% | 100% | 100%
6 | CCc1ccc(-c2ccc(Cl)cc2Cl)cc1C1=C(O)C(C)(C)S(=O)(=O)C(C)(C)C1=O [Compound C-11] | 0% | 0% | 0% | 0% | 80% | 80% | 70% | 20% | 30% | 60%
7 | CCc1ccc(-c2ccc(Cl)cc2F)cc1C1=C(O)C(C)(C)OC(C)(C)C1=O [Compound A-66] | 60% | 0% | 0% | 50% | 40% | 100% | 20% | 10% | 100% | 30%
8 | CCc1ccc(-c2ccc(Cl)cc2Cl)cc1C1=C(OC(C)=O)C(C)(C)OC(C)(C)C1=O [Compound D-23] | 100% | 0% | 0% | 90% | 0% | 100% | 0% | 0% | 90% | 0%
9 | CCc1ccc(-c2ccc(Cl)cc2OC)cc1C1=C(O)C(C)(C)OC(C)(C)C1=O [Compound A-65] | 90% | 0% | 0% | 0% | 0% | 90% | 20% | 10% | 70% | 0%
